Where “and” joins values, the source holds several entries; their conditions need not be identical. Identical values can stand only once. Like-named read-outs stand apart in the source and are kept apart here. Marks after values point to notes of the source that are not given here.
Key:
EphrinB2-EphB2 [1] = molecular target: T1, EphrinB2-EphB2 (Homo sapiens, UniProt P29323); test: Octet tetramerization inhibition, immobilized human EphrinB2 binding to 50 nM soluble human EphB2
T1 construct: soluble human EphB1-His, EphB2-His, and EphB4-His ectodomains; commercially available human EphrinB1-Fc (EB1), EphrinB2-Fc (EB2), and EphrinB3-Fc (EB3) ectodomain proteins; purchased
T1 sequence (P29323 19-543 limits assumed): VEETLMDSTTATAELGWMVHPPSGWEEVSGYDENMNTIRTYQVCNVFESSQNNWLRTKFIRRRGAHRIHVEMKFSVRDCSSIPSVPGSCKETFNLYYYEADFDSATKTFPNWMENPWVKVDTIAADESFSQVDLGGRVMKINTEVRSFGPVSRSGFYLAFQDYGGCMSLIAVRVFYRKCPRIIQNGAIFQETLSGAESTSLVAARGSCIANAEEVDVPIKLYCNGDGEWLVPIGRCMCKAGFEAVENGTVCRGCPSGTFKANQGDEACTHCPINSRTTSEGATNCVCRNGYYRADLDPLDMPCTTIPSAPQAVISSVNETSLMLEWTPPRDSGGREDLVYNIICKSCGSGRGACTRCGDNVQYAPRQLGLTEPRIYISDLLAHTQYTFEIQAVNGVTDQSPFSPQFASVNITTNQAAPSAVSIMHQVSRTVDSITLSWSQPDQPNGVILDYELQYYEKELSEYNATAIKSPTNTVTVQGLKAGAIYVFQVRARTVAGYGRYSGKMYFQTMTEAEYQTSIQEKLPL

EphrinB2-EphB1 = molecular target: T2, EphrinB2-EphB1 (Homo sapiens, UniProt P54762); test: Octet 80 sec association/500 sec dissociation, immobilized human EphrinB2-Fc binding to soluble human EphB1-His; conditions: for EphB1 Inhibition Percent, Inhibition of Association ONLY: at 3.2 μM and 80 seconds; for EphB1 Inhibition Percent, Inhibition of Association ONLY / EphB1 Inhibition Percent, Inhibition of Association-Dissociation: immobilized human EphrinB2, 25 nM soluble human EphB1; for EphB1 Inhibition Percent, Inhibition of Association-Dissociation: at 3.2 μM and 580 seconds; for inhibition at 3.2 µM: EphB1, 25 nM EphB1, 3.2 μM compound, A20-I as max control, 0* = less than 0, no inhibition
T2 construct: soluble human EphB1-His, EphB2-His, and EphB4-His ectodomains; commercially available human EphrinB1-Fc (EB1), EphrinB2-Fc (EB2), and EphrinB3-Fc (EB3) ectodomain proteins; purchased
T2 sequence (P54762 18-540 limits assumed): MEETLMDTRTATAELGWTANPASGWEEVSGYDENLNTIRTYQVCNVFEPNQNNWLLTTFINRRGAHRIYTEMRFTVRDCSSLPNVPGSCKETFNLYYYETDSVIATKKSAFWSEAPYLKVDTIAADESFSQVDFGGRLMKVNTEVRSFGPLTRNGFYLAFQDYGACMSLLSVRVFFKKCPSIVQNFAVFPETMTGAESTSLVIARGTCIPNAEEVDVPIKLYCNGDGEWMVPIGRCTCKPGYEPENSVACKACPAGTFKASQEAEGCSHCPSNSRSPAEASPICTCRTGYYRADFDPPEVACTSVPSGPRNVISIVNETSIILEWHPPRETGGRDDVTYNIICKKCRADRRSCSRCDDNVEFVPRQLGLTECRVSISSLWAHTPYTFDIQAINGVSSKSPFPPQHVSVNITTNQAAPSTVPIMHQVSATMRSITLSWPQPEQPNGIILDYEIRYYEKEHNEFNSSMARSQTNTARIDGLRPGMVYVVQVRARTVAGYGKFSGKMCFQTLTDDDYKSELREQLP
Method in brief: (§1)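 EphrinB2-Fc captured on AHC biosensors, then soluble His-tagged EphB ectodomain (25 nM for % inhibition runs) associated 80 s and dissociated 500 s in PBS, 0.05% Tween-20, 1% DMSO ± compound. Compounds tested at 0.1–3.2 μM with a 10 μM max standard; IC50 from AUC of full traces or at 75 s and 135 s.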

EphrinB2-EphB2 [2] = molecular target: T1, EphrinB2-EphB2; test: Octet 80 sec association/500 sec dissociation, immobilized human EphrinB2-Fc binding to soluble human EphB2-His; conditions: for EphB2 Inhibition Percent, Inhibition of Association ONLY: at 3.2 μM and 80 seconds; for EphB2 Inhibition Percent, Inhibition of Association ONLY / EphB2 Inhibition Percent, Inhibition of Association-Dissociation: immobilized human EphrinB2, 25 nM soluble human EphB2; for EphB2 Inhibition Percent, Inhibition of Association-Dissociation: at 3.2 μM and 580 seconds; for inhibition at 3.2 µM: EphB2, 25 nM EphB2, 3.2 μM compound, A20-I as max control, 0* = less than 0, no inhibition
Method in brief: as §1

EphrinB2-EphB4 = molecular target: T3, EphrinB2-EphB4 (Homo sapiens, UniProt P54760); test: Octet 80 sec association/500 sec dissociation, immobilized human EphrinB2-Fc binding to soluble human EphB4-His; conditions: for EphB4 Inhibition Percent, Inhibition of Association ONLY: at 3.2 μM and 80 seconds; for EphB4 Inhibition Percent, Inhibition of Association ONLY / EphB4 Inhibition Percent, Inhibition of Association-Dissociation: immobilized human EphrinB2, 25 nM soluble human EphB4; for EphB4 Inhibition Percent, Inhibition of Association-Dissociation: at 3.2 μM and 580 seconds; for inhibition at 3.2 µM: EphB4, 25 nM EphB4, 3.2 μM compound, A20-I as max control, 0* = less than 0, no inhibition
T3 construct: soluble human EphB1-His, EphB2-His, and EphB4-His ectodomains; commercially available human EphrinB1-Fc (EB1), EphrinB2-Fc (EB2), and EphrinB3-Fc (EB3) ectodomain proteins; purchased
T3 sequence (P54760 16-539 limits assumed): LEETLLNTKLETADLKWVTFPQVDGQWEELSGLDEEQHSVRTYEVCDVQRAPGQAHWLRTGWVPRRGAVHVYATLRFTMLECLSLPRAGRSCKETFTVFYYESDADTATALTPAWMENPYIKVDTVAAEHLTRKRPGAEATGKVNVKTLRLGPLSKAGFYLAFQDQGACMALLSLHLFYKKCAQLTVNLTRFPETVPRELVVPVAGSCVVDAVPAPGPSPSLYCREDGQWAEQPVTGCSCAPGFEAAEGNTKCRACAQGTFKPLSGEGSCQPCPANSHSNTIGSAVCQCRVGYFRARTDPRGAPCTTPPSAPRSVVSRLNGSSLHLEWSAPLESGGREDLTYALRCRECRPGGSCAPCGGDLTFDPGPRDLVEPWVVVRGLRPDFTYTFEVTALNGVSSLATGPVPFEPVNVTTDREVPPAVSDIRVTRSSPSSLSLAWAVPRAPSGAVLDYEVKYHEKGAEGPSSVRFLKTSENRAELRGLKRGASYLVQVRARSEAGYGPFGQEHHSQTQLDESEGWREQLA
Method in brief: as §1

[3] = Absolute AUC/IC50, Table A, EphrinB2-EphB2
[4] = Absolute Association IC50 (300 sec), Table A, EphrinB2-EphB2
[5] = Absolute Dissociation IC50 (450 sec), Table A, EphrinB2-EphB2
[6] = Relative AUC/IC50, Table A, EphrinB2-EphB2, compound 7: association only
[7] = Relative Association IC50 (300 sec), Table A, EphrinB2-EphB2
[8] = Relative Dissociation IC50 (450 sec), Table A, EphrinB2-EphB2
[9] = tetramerization inhibitor IC50 (relative), association step, surmountable tetramer
[10] = read-out: % Inhibition: Association + Dissociation (160 sec)
[11] = read-out: % Inhibition: Association ONLY (80 sec)

Compound | IC50 (EphrinB2-EphB2 [1]; [3]) | IC50 (EphrinB2-EphB2 [1]; [4]) | IC50 (EphrinB2-EphB2 [1]; [5]) | IC50 (EphrinB2-EphB2 [1]; [6]) | EphB1 Inhibition Percent, Inhibition of Association ONLY (EphrinB2-EphB1) | EphB1 Inhibition Percent, Inhibition of Association-Dissociation (EphrinB2-EphB1) | EphB2 Inhibition Percent, Inhibition of Association ONLY (EphrinB2-EphB2 [2]) | EphB2 Inhibition Percent, Inhibition of Association-Dissociation (EphrinB2-EphB2 [2]) | EphB4 Inhibition Percent, Inhibition of Association ONLY (EphrinB2-EphB4) | EphB4 Inhibition Percent, Inhibition of Association-Dissociation (EphrinB2-EphB4) | IC50 (EphrinB2-EphB2 [1]; [7]) | IC50 (EphrinB2-EphB2 [1]; [8]) | IC50 (EphrinB2-EphB2 [1]; [9]) | inhibition at 3.2 µM (EphrinB2-EphB1; [10]) | inhibition at 3.2 µM (EphrinB2-EphB1; [11]) | inhibition of EphrinB2-EphB interactions (EphrinB2-EphB2 [2]; 3.2 μM, EphB1, EphB2 and EphB4) | inhibition at 3.2 µM (EphrinB2-EphB2 [2]; [10]) | inhibition at 3.2 µM (EphrinB2-EphB2 [2]; [11]) | inhibition at 3.2 µM (EphrinB2-EphB4; [10]) | inhibition at 3.2 µM (EphrinB2-EphB4; [11])
Oc1ccc(CN2CCN(c3ccc(Br)cc3)CC2)c2cccnc12 [Compound 27, 5-((4-(4-bromophenyl)piperazin-1-ium-1-yl)methyl)-8-hydroxyquinolin-1-ium chloride] | > 1.6 µM | > 1.6 µM | > 1.6 µM | 0.42 µM | 24.2% and 33.8% | 57.1% and 43.8% | 16.8% and 29.2% | 60.9% and 43.7% | 11.4/11.4% | 19.5% and 12.6% |  |  |  |  |  |  |  |  |  | 
Oc1c(Br)cc(CN2CCN(Cc3ccc(Br)cc3)CC2)c2cccnc12 [Compound 45, 7-bromo-5-((4-(4-bromobenzyl)piperazin-1-ium-1-yl)methyl)-8-hydroxyquinolin-1-ium chloride] | 0.76 µM | 0.79 µM | 0.72 µM |  | 37.3% | 49.9% | 62.1% | 77.1% | 4.9% | 28.3% | 0.56 µM | 0.59 µM |  |  |  |  |  |  |  | 
Cc1ccc2c(CN3CCN(c4ccc(Br)cc4)CC3)ccc(O)c2n1 [Compound 61, 5-((4-(4-bromophenyl)piperazin-1-ium-1-yl)methyl)-8-hydroxy-2-methylquinolin-1-ium chloride] | > 1.6 µM | > 1.6 µM | > 1.6 µM | > 1.6 µM | 8.1% | 11.3% | 0*% | 0*% | 0*% | 0*% | > 1.6 µM | > 1.6 µM |  |  |  |  |  |  |  | 
O=S1(=O)CCN(Cc2cc(I)c(O)c3ncccc23)CC1 [Compound 19, 4-((8-hydroxy-7-iodoquinolin-1-ium-5-yl)methyl)thiomorpholin-4-ium 1,1-dioxide chloride] | > 1.6 µM | 1.6 µM | 1.41 µM | 0.69 µM | 33.9% | 50.1% | 53.7% | 71.4% | 12.9% | 36.2% | 0.83 µM | 0.81 µM |  |  |  |  |  |  |  | 
Cc1ccc2c(CN3CCOCC3)cc(Br)c(O)c2n1 [Compound 57, 7-bromo-2-methyl-5-(morpholinomethyl)quinolin-8-ol] | > 3.2 µM | > 3.2 µM | > 3.2 µM | 2.24 µM | 0*% | 15.3% | 1.4% | 20.3% | 0*% | 8.7% | > 3.2 µM | > 3.2 µM | > 3 µM |  |  |  |  |  |  | 
Oc1ccc(CN2CCN(c3ccccc3)CC2)c2cccnc12 [Compound 23, 8-hydroxy-5-((4-phenylpiperazin-1-ium-1-yl)methyl)quinolin-1-ium chloride] | > 1.6 µM | > 1.6 µM | > 1.6 µM | > 1.6 µM | 30.8% and 16.2% | 41.2% and 24.8% | 66.0% and 38.5% | 79.1% and 49% | 23.1% and 12.1% | 26.7% and 17.9% | > 1.6 µM | > 1.6 µM |  |  |  |  |  |  |  | 
Oc1ccc(CN2CCN(c3ccc(I)cc3)CC2)c2cccnc12 [Compound 32] | > 1.6 µM | > 1.6 µM | > 1.6 µM | 0.79 µM | 24.5% | 40.5% | 63.9% | 78.2% | 33.8% | 42.5% | 1.4 µM | 1 µM |  |  |  |  |  |  |  | 
O=S1(=O)CCN(Cc2cc(Br)c(O)c3ncccc23)CC1 [Compound 16, 4-((7-bromo-8-hydroxyquinolin-5-yl)methyl)thiomorpholine 1,1-dioxide] |  |  |  |  |  |  |  |  |  |  |  |  | ~0.8 µM | 48% | 33% | activity similar to A20-I max control | 74.5% | 59.5% | 37.2% | 18.1%
